Test results published in US7300946B2, “N-(substituted arylmethyl)-4-(disubstituted methyl) piperidines and pyridines” (Bayer CropScience AG, priority 2002, dated 2007).

System: tobacco budworm (Heliothis virescens [Fabricius])
Assay: surface-treated diet test against the tobacco budworm
Assay type: in vivo
Settings: tobacco budworm second instar larvae; 0.25 millimoles of candidate insecticide on the surface of the diet; five-day exposure; compared to total number of insects infested
Outline: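 Wheat germ artificial diet surface-treated with 40 µL of 50 mM DMSO stock diluted 1:7 in 1:1 water/acetone (0.25 millimolar on diet), or sub-multiples for rate tests. One second-instar larva per well, 25° C, 60% RH, 5 days; percent weight inhibition vs DMSO controls and percent mortality.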

Compound	Percent Mortality [%]
C=CCNC(=O)OC(c1ccc(C(F)(F)F)cc1)C1CCN(Cc2ccc(Oc3ccccn3)cc2)CC1 (stereo not drawn) [Compound 780]	0
CS(=O)(=O)Oc1ccc(CN2CCC(=C(c3ccc(C(F)(F)F)cc3)c3ccc(C(F)(F)F)cc3)CC2)cc1 [Compound 803]	100
FC(F)(F)c1ccc(C(=C2CCN(Cc3ccc(-c4ccccn4)cc3)CC2)c2ccc(C(F)(F)F)cc2)cc1 [Compound 807]	100
O=C(NC1CCCCC1)OC(c1ccc(C(F)(F)F)cc1)C1CCN(Cc2ccc(Oc3ccccn3)cc2)CC1 (stereo not drawn) [Compound 782]	100
FC(F)(F)c1ccc(C(=C2CCN(Cc3ccc(Oc4ccc(Cl)nn4)cc3)CC2)c2ccc(C(F)(F)F)cc2)cc1 [Compound 826]	100
FC(F)(F)c1ccc(C(=C2CCN(Cc3ccc(Nc4ncccn4)nc3)CC2)c2ccc(C(F)(F)F)cc2)cc1 [Compound 859]	0
CCON=Cc1ccc(C[N+]2([O-])CCC(C(OC(=O)Nc3cccc(F)c3)c3ccc(C(F)(F)F)cc3)CC2)cc1 (stereo not drawn) [Compound 742]	100
COc1nc(OC)nc(Oc2ccc(CN3CCC(C(OC(=O)Nc4cc(F)cc(F)c4)c4ccc(C(F)(F)F)cc4)CC3)cc2)n1 (stereo not drawn) [Compound 740]	100
O=C(Nc1ccc(F)cc1F)OC(c1ccc(C(F)(F)F)cc1)C1CCN(Cc2ccc(Oc3ncccn3)cc2)CC1 (stereo not drawn) [Compound 730]	100
FC(F)(F)c1ccc(C(=C2CCN(Cc3ccc(OC4=NCCCN4)cc3)CC2)c2ccc(C(F)(F)F)cc2)cc1 [Compound 823]	67
O=C(Nc1cc(F)cc(F)c1)OC(c1ccc(C(F)(F)F)cc1)C1CC[N+]([O-])(Cc2ccc(Oc3ccc(Cl)cn3)cc2)CC1 (stereo not drawn) [Compound 756]	100
CC=CCOC(=O)Nc1ccc(CN2CCC(=C(c3ccc(C(F)(F)F)cc3)c3ccc(C(F)(F)F)cc3)CC2)cc1 [Compound 799]	0
CC(C)OC(=O)Nc1ccc(C[N+]2([O-])CCC(=C(c3ccc(Cl)c(F)c3)c3ccc(Cl)c(F)c3)CC2)cc1 (stereo not drawn) [Compound 834]	100
O=C(Nc1cc(F)cc(F)c1)OC(c1ccc(C(F)(F)F)cc1)C1CCN(Cc2ccc(Oc3cccnn3)cc2)CC1 (stereo not drawn) [Compound 736]	100

Same assay, conditions: tobacco budworm second instar larvae; 0.25 millimoles of candidate insecticide on the surface of the diet; five-day exposure; inhibition of insect weight relative to untreated controls

Compound	Percent Growth Inhibition [%]
C=CCNC(=O)OC(c1ccc(C(F)(F)F)cc1)C1CCN(Cc2ccc(Oc3ccccn3)cc2)CC1 (stereo not drawn) [Compound 780]	98
CS(=O)(=O)Oc1ccc(CN2CCC(=C(c3ccc(C(F)(F)F)cc3)c3ccc(C(F)(F)F)cc3)CC2)cc1 [Compound 803]	100
FC(F)(F)c1ccc(C(=C2CCN(Cc3ccc(-c4ccccn4)cc3)CC2)c2ccc(C(F)(F)F)cc2)cc1 [Compound 807]	100
O=C(NC1CCCCC1)OC(c1ccc(C(F)(F)F)cc1)C1CCN(Cc2ccc(Oc3ccccn3)cc2)CC1 (stereo not drawn) [Compound 782]	100
FC(F)(F)c1ccc(C(=C2CCN(Cc3ccc(Oc4ccc(Cl)nn4)cc3)CC2)c2ccc(C(F)(F)F)cc2)cc1 [Compound 826]	100
FC(F)(F)c1ccc(C(=C2CCN(Cc3ccc(Nc4ncccn4)nc3)CC2)c2ccc(C(F)(F)F)cc2)cc1 [Compound 859]	46
CCON=Cc1ccc(C[N+]2([O-])CCC(C(OC(=O)Nc3cccc(F)c3)c3ccc(C(F)(F)F)cc3)CC2)cc1 (stereo not drawn) [Compound 742]	100
COc1nc(OC)nc(Oc2ccc(CN3CCC(C(OC(=O)Nc4cc(F)cc(F)c4)c4ccc(C(F)(F)F)cc4)CC3)cc2)n1 (stereo not drawn) [Compound 740]	100
O=C(Nc1ccc(F)cc1F)OC(c1ccc(C(F)(F)F)cc1)C1CCN(Cc2ccc(Oc3ncccn3)cc2)CC1 (stereo not drawn) [Compound 730]	100
FC(F)(F)c1ccc(C(=C2CCN(Cc3ccc(OC4=NCCCN4)cc3)CC2)c2ccc(C(F)(F)F)cc2)cc1 [Compound 823]	100
O=C(Nc1cc(F)cc(F)c1)OC(c1ccc(C(F)(F)F)cc1)C1CC[N+]([O-])(Cc2ccc(Oc3ccc(Cl)cn3)cc2)CC1 (stereo not drawn) [Compound 756]	100
CC=CCOC(=O)Nc1ccc(CN2CCC(=C(c3ccc(C(F)(F)F)cc3)c3ccc(C(F)(F)F)cc3)CC2)cc1 [Compound 799]	83
CC(C)OC(=O)Nc1ccc(C[N+]2([O-])CCC(=C(c3ccc(Cl)c(F)c3)c3ccc(Cl)c(F)c3)CC2)cc1 (stereo not drawn) [Compound 834]	100
O=C(Nc1cc(F)cc(F)c1)OC(c1ccc(C(F)(F)F)cc1)C1CCN(Cc2ccc(Oc3cccnn3)cc2)CC1 (stereo not drawn) [Compound 736]	100

Same assay, conditions: tobacco budworm second instar larvae; surface-treated diet; 0.25 millimoles of candidate insecticide on the surface of the diet; five-day exposure; compared to total number of insects infested

Compound	Percent Mortality [%]
CCON=Cc1ccc(CN2CCC(C(OC(=O)Nc3cccc4c3CC=CC4)c3ccc(C(F)(F)F)cc3)CC2)cc1 (stereo not drawn) [Compound 214]	0
CCn1nnc(-c2ccc(CN3CCC(C(OC(=O)Nc4ccc(C(C)C)cc4)c4ccc(OC(F)(F)F)cc4)CC3)cc2)n1 (stereo not drawn) [Compound 286]	50
O=C(Nc1ccccn1)OC(c1ccc(C(F)(F)F)cc1)C1CCN(Cc2ccc(Oc3ccccn3)cc2)CC1 (stereo not drawn) [Compound 436]	50
CCON=Cc1ccc(CN2CCC(C(OC(=O)Nc3ccc(Cl)cc3)c3ccc(Cl)cc3Cl)CC2)cc1 (stereo not drawn) [Compound 529]	100
O=C(Nc1cc(F)cc(F)c1)OC(c1ccc(C(F)(F)F)cc1)C1CCN(Cc2ccc(-c3csnn3)cc2)CC1 (stereo not drawn) [Compound 560]	33
CC(=O)Nc1ccc(CN2CCC(C(OC(=O)Nc3ccc(Cl)cc3)c3ccc(C(F)(F)F)cc3)CC2)cc1 (stereo not drawn) [Compound 494]	0
CCON=Cc1ccc(CN2CCC(C(OC(=O)Nc3cc(F)cc(F)c3)c3ccc(F)cc3)CC2)cc1 (stereo not drawn) [Compound 528]	100
CCn1nnc(-c2ccc(CN3CCC(C(OC(=O)Nc4ccc(Cl)c(Cl)c4)c4ccccc4Cl)CC3)cc2)n1 (stereo not drawn) [Compound 568]	100
CCON=Cc1ccc(CN2CCC(C(OC(=O)Nc3cc(F)cc(F)c3)c3cc(Cl)cc(Cl)c3)CC2)cc1 (stereo not drawn) [Compound 534]	100
Nc1ccc(CN2CCC(C(OC(=O)Nc3ccc(Cl)cc3)c3ccc(C(F)(F)F)cc3)CC2)cc1 (stereo not drawn) [Compound 465]	0

Same assay, conditions: tobacco budworm second instar larvae; surface-treated diet; 0.25 millimoles of candidate insecticide on the surface of the diet; five-day exposure; inhibition of insect weight relative to untreated controls

Compound	Percent Growth Inhibition [%]
CCON=Cc1ccc(CN2CCC(C(OC(=O)Nc3cccc4c3CC=CC4)c3ccc(C(F)(F)F)cc3)CC2)cc1 (stereo not drawn) [Compound 214]	100
CCn1nnc(-c2ccc(CN3CCC(C(OC(=O)Nc4ccc(C(C)C)cc4)c4ccc(OC(F)(F)F)cc4)CC3)cc2)n1 (stereo not drawn) [Compound 286]	94
O=C(Nc1ccccn1)OC(c1ccc(C(F)(F)F)cc1)C1CCN(Cc2ccc(Oc3ccccn3)cc2)CC1 (stereo not drawn) [Compound 436]	100
CCON=Cc1ccc(CN2CCC(C(OC(=O)Nc3ccc(Cl)cc3)c3ccc(Cl)cc3Cl)CC2)cc1 (stereo not drawn) [Compound 529]	100
O=C(Nc1cc(F)cc(F)c1)OC(c1ccc(C(F)(F)F)cc1)C1CCN(Cc2ccc(-c3csnn3)cc2)CC1 (stereo not drawn) [Compound 560]	96
CC(=O)Nc1ccc(CN2CCC(C(OC(=O)Nc3ccc(Cl)cc3)c3ccc(C(F)(F)F)cc3)CC2)cc1 (stereo not drawn) [Compound 494]	77
CCON=Cc1ccc(CN2CCC(C(OC(=O)Nc3cc(F)cc(F)c3)c3ccc(F)cc3)CC2)cc1 (stereo not drawn) [Compound 528]	100
CCn1nnc(-c2ccc(CN3CCC(C(OC(=O)Nc4ccc(Cl)c(Cl)c4)c4ccccc4Cl)CC3)cc2)n1 (stereo not drawn) [Compound 568]	100
CCON=Cc1ccc(CN2CCC(C(OC(=O)Nc3cc(F)cc(F)c3)c3cc(Cl)cc(Cl)c3)CC2)cc1 (stereo not drawn) [Compound 534]	100
Nc1ccc(CN2CCC(C(OC(=O)Nc3ccc(Cl)cc3)c3ccc(C(F)(F)F)cc3)CC2)cc1 (stereo not drawn) [Compound 465]	92
